Data: patent publication US12295936B2, “Immunomodulating urea azalides” (Zoetis Services LLC, priority 2020, dated 2025)

system: BRD pathogens, M. haemolytica and P. multocida; experiment: MIC screening panel of BRD pathogens (antibacterial / non-antibacterial); conditions: read-out: antibacterial / non-antibacterial (MIC for the BRD pathogens)

SMILES | MIC [µg/mL]
CC[C@H]1OC(=O)[C@H](C)[C@@H](O[C@H]2C[C@@](C)(OC)[C@](O)(CNCCCn3ccccc3=O)[C@H](C)O2)[C@H](C)[C@@H](O[C@@H]2O[C@H](C)C[C@H](N(C)C(=O)N(C)c3ccccc3)[C@H]2O)[C@](C)(O)C[C@@H](C)CN[C@H](C)[C@@H](O)[C@]1(C)O [Example H-47, 1-((2S,3R,4S,6R)-2-(((2R,3S,4R,5R,8R,10R,11R,12S,13S,14R)-2-ethyl-3,4,10-trihydroxy-13-(((2R,4R,5S,6S)-5-hydroxy-4-methoxy-4,6-dimethyl-5-(((3-(2-oxopyridin-1(2H)-yl)propyl)amino)methyl)tetrahydro-2H-pyran-2-yl)oxy)-3,5,8,10,12,14-hexamethyl-15-oxo-1-oxa-6-azacyclopentadecan-11-yl)oxy)-3-hydroxy-6-methyltetrahydro-2H-pyran-4-yl)-1,3-dimethyl-3-phenylurea] | > 64
CCCNC[C@]1(O)[C@H](C)O[C@@H](O[C@H]2[C@H](C)[C@@H](O[C@@H]3O[C@H](C)C[C@H](N(C)C(=O)N(C)c4cccnn4)[C@H]3O)[C@](C)(O)C[C@@H](C)CN[C@H](C)[C@@H](O)[C@](C)(O)[C@@H](CC)OC(=O)[C@@H]2C)C[C@@]1(C)OC [Example H-48, 1-((2S,3R,4S,6R)-2-(((2R,3S,4R,5R,8R,10R,11R,12S,13S,14R)-2-ethyl-3,4,10-trihydroxy-13-(((2R,4R,5S,6S)-5-hydroxy-4-methoxy-4,6-dimethyl-5-((propylamino)methyl)tetrahydro-2H-pyran-2-yl)oxy)-3,5,8,10,12,14-hexamethyl-15-oxo-1-oxa-6-azacyclopentadecan-11-yl)oxy)-3-hydroxy-6-methyltetrahydro-2H-pyran-4-yl)-1,3-dimethyl-3-(pyridazin-3-yl)urea] | > 64
CCCNC[C@]1(O)[C@H](C)O[C@@H](O[C@H]2[C@H](C)[C@@H](O[C@@H]3O[C@H](C)C[C@H](N(C)C(=O)N(C)c4ncccn4)[C@H]3O)[C@](C)(O)C[C@@H](C)CN[C@H](C)[C@@H](O)[C@](C)(O)[C@@H](CC)OC(=O)[C@@H]2C)C[C@@]1(C)OC [Example H-49, 1-((2S,3R,4S,6R)-2-(((2R,3S,4R,5R,8R,10R,11R,12S,13S,14R)-2-ethyl-3,4,10-trihydroxy-13-(((2R,4R,5S,6S)-5-hydroxy-4-methoxy-4,6-dimethyl-5-((propylamino)methyl)tetrahydro-2H-pyran-2-yl)oxy)-3,5,8,10,12,14-hexamethyl-15-oxo-1-oxa-6-azacyclopentadecan-11-yl)oxy)-3-hydroxy-6-methyltetrahydro-2H-pyran-4-yl)-1,3-dimethyl-3-(pyrimidin-2-yl)urea] | > 64
CCCNC[C@]1(O)[C@H](C)O[C@@H](O[C@H]2[C@H](C)[C@@H](O[C@@H]3O[C@H](C)C[C@H](N(C)C(=O)N(C)c4ncc(C5CC5)cn4)[C@H]3O)[C@](C)(O)C[C@@H](C)CN[C@H](C)[C@@H](O)[C@](C)(O)[C@@H](CC)OC(=O)[C@@H]2C)C[C@@]1(C)OC [Example H-52, 1-(5-cyclopropylpyrimidin-2-yl)-3-((2S,3R,4S,6R)-2-(((2R,3S,4R,5R,8R,10R,11R,12S,13S,14R)-2-ethyl-3,4,10-trihydroxy-13-(((2R,4R,5S,6S)-5-hydroxy-4-methoxy-4,6-dimethyl-5-((propylamino)methyl)tetrahydro-2H-pyran-2-yl)oxy)-3,5,8,10,12,14-hexamethyl-15-oxo-1-oxa-6-azacyclopentadecan-11-yl)oxy)-3-hydroxy-6-methyltetrahydro-2H-pyran-4-yl)-1,3-dimethylurea] | > 64
CCCNC[C@]1(O)[C@H](C)O[C@@H](O[C@H]2[C@H](C)[C@@H](O[C@@H]3O[C@H](C)C[C@H](N(C)C(=O)N(C)c4cccnc4)[C@H]3O)[C@](C)(O)C[C@@H](C)CN[C@H](C)[C@@H](O)[C@](C)(O)[C@@H](CC)OC(=O)[C@@H]2C)C[C@@]1(C)OC [Example H-53, 1-((2S,3R,4S,6R)-2-(((2R,3S,4R,5R,8R,10R,11R,12S,13S,14R)-2-ethyl-3,4,10-trihydroxy-13-(((2R,4R,5S,6S)-5-hydroxy-4-methoxy-4,6-dimethyl-5-((propylamino)methyl)tetrahydro-2H-pyran-2-yl)oxy)-3,5,8,10,12,14-hexamethyl-15-oxo-1-oxa-6-azacyclopentadecan-11-yl)oxy)-3-hydroxy-6-methyltetrahydro-2H-pyran-4-yl)-1,3-dimethyl-3-(pyridin-3-yl)urea] | > 64
CCCNC[C@]1(O)[C@H](C)O[C@@H](O[C@H]2[C@H](C)[C@@H](O[C@@H]3O[C@H](C)C[C@H](N(C)C(=O)N(c4ccccc4)C4CCOCC4)[C@H]3O)[C@](C)(O)C[C@@H](C)CN[C@H](C)[C@@H](O)[C@](C)(O)[C@@H](CC)OC(=O)[C@@H]2C)C[C@@]1(C)OC [Example H-55, 1-((2S,3R,4S,6R)-2-(((2R,3S,4R,5R,8R,10R,11R,12S,13S,14R)-2-ethyl-3,4,10-trihydroxy-13-(((2R,4R,5S,6S)-5-hydroxy-4-methoxy-4,6-dimethyl-5-((propylamino)methyl)tetrahydro-2H-pyran-2-yl)oxy)-3,5,8,10,12,14-hexamethyl-15-oxo-1-oxa-6-azacyclopentadecan-11-yl)oxy)-3-hydroxy-6-methyltetrahydro-2H-pyran-4-yl)-1-methyl-3-phenyl-3-(tetrahydro-2H-pyran-4-yl)urea] | > 64
CCCNC[C@]1(O)[C@H](C)O[C@@H](O[C@H]2[C@H](C)[C@@H](O[C@@H]3O[C@H](C)C[C@H](N(C)C(=O)N(C)c4cc(C)nc(C)n4)[C@H]3O)[C@](C)(O)C[C@@H](C)CN[C@H](C)[C@@H](O)[C@](C)(O)[C@@H](CC)OC(=O)[C@@H]2C)C[C@@]1(C)OC [Example H-57, 1-(2,6-dimethylpyrimidin-4-yl)-3-((2S,3R,4S,6R)-2-(((2R,3S,4R,5R,8R,10R,11R,12S,13S,14R)-2-ethyl-3,4,10-trihydroxy-13-(((2R,4R,5S,6S)-5-hydroxy-4-methoxy-4,6-dimethyl-5-((propylamino)methyl)tetrahydro-2H-pyran-2-yl)oxy)-3,5,8,10,12,14-hexamethyl-15-oxo-1-oxa-6-azacyclopentadecan-11-yl)oxy)-3-hydroxy-6-methyltetrahydro-2H-pyran-4-yl)-1,3-dimethylurea] | > 64
CCCN(C[C@]1(O)[C@H](C)O[C@@H](O[C@H]2[C@H](C)[C@@H](O[C@@H]3O[C@H](C)C[C@H](N(C)C(=O)N(C)c4ccccc4)[C@H]3O)[C@](C)(O)C[C@@H](C)CN[C@H](C)[C@@H](O)[C@](C)(O)[C@@H](CC)OC(=O)[C@@H]2C)C[C@@]1(C)OC)C(=O)N(C)c1ccccc1 [Example H-63, 1-((2S,3R,4S,6R)-2-(((2R,3S,4R,5R,8R,10R,11R,12S,13S,14R)-2-ethyl-3,4,10-trihydroxy-13-(((2R,4R,5S,6S)-5-hydroxy-4-methoxy-4,6-dimethyl-5-((3-methyl-3-phenyl-1-propylureido)methyl)tetrahydro-2H-pyran-2-yl)oxy)-3,5,8,10,12,14-hexamethyl-15-oxo-1-oxa-6-azacyclopentadecan-11-yl)oxy)-3-hydroxy-6-methyltetrahydro-2H-pyran-4-yl)-1,3-dimethyl-3-phenylurea] | > 64
CCCNC[C@]1(O)[C@H](C)O[C@@H](O[C@H]2[C@H](C)[C@@H](O[C@@H]3O[C@H](C)C[C@H](N(C)C(=O)Nc4cccc(C#N)c4)[C@H]3O)[C@](C)(O)C[C@@H](C)CN[C@H](C)[C@@H](O)[C@](C)(O)[C@@H](CC)OC(=O)[C@@H]2C)C[C@@]1(C)OC [Example H-79, 3-(3-cyanophenyl)-1-((2S,3R,4S,6R)-2-(((2R,3S,4R,5R,8R,10R,11R,12S,13S,14R)-2-ethyl-3,4,10-trihydroxy-13-(((2R,4R,5S,6S)-5-hydroxy-4-methoxy-4,6-dimethyl-5-((propylamino)methyl)tetrahydro-2H-pyran-2-yl)oxy)-3,5,8,10,12,14-hexamethyl-15-oxo-1-oxa-6-azacyclopentadecan-11-yl)oxy)-3-hydroxy-6-methyltetrahydro-2H-pyran-4-yl)-1-methylurea] | > 64
CCCNC[C@]1(O)[C@H](C)O[C@@H](O[C@H]2[C@H](C)[C@@H](O[C@@H]3O[C@H](C)C[C@H](N(C)C(=O)Nc4ccccc4Cl)[C@H]3O)[C@](C)(O)C[C@@H](C)CN[C@H](C)[C@@H](O)[C@](C)(O)[C@@H](CC)OC(=O)[C@@H]2C)C[C@@]1(C)OC [Example H-80, 3-(2-chlorophenyl)-1-((2S,3R,4S,6R)-2-(((2R,3S,4R,5R,8R,10R,11R,12S,13S,14R)-2-ethyl-3,4,10-trihydroxy-13-(((2R,4R,5S,6S)-5-hydroxy-4-methoxy-4,6-dimethyl-5-((propylamino)methyl)tetrahydro-2H-pyran-2-yl)oxy)-3,5,8,10,12,14-hexamethyl-15-oxo-1-oxa-6-azacyclopentadecan-11-yl)oxy)-3-hydroxy-6-methyltetrahydro-2H-pyran-4-yl)-1-methylurea] | > 64
CCCNC[C@]1(O)[C@H](C)O[C@@H](O[C@H]2[C@H](C)[C@@H](O[C@@H]3O[C@H](C)C[C@H](N(C)C(=O)Nc4ccccc4F)[C@H]3O)[C@](C)(O)C[C@@H](C)CN[C@H](C)[C@@H](O)[C@](C)(O)[C@@H](CC)OC(=O)[C@@H]2C)C[C@@]1(C)OC [Example H-82, 1-((2S,3R,4S,6R)-2-(((2R,3S,4R,5R,8R,10R,11R,12S,13S,14R)-2-ethyl-3,4,10-trihydroxy-13-(((2R,4R,5S,6S)-5-hydroxy-4-methoxy-4,6-dimethyl-5-((propylamino)methyl)tetrahydro-2H-pyran-2-yl)oxy)-3,5,8,10,12,14-hexamethyl-15-oxo-1-oxa-6-azacyclopentadecan-11-yl)oxy)-3-hydroxy-6-methyltetrahydro-2H-pyran-4-yl)-3-(2-fluorophenyl)-1-methylurea] | > 64
